Here are results for three compounds from patent US20250197394A1, “ANTIBACTERIALS BASED ON MONOCYCLIC FRAGMENTS COUPLED TO AMINOPIPERIDINE NAPHTHYRIDINE SCAFFOLD” (UNIVERZA V LJUBLJANI, priority 2019, published 2025).

Converted amounts (≈) assume the structure as drawn.

For data set [1], the system named is S. aureus. Description: MIC broth microdilution, S. aureus. The conditions noted are these: Staphylococcus aureus, 20 hours of incubation. The class given is cell-based. The protocol:
(§1) Minimal inhibitory concentrations were determined by the broth microdilution method in 96-wells plate format following the Clinical and Laboratory Standards Institute (CLSI) guidelines given in “Methods for Dilution Antimicrobial Susceptibility Tests for Bacteria That Grow Aerobically, Approved Standard, 10th Edition, CLSI document M07-A10, Wayne, PA: Clinical and Laboratory Standards Institute, USA, 2015” and European Committee on Antimicrobial Susceptibility Testing (EUCAST) recommendations given in “The European Committee on Antimicrobial Susceptibility Testing, Breakpoint tables for interpretation of MICs and zone diameters, Version 5.0, 2015”. All exemplified compounds were tested on several Gram-positive (S. aureus, methicillin-resistant Staphylococcus aureus (MRSA), methicillin-resistant
(§2) Staphylococcus schleiferi subspecies coagulans, methicillin-resistant Staphylococcus pseudintermedius
(§3) (S-48, S-84, S-35, S-52, S-40 and S-51), Streptococcus agalactiae and Enterococcus faecalis) and Gram-negative bacteria (E. coli, Salmonella Alachua and Pseudomonas aeruginosa).
(§4) The MICs were visually determined as the lowest compound concentration inhibiting bacterial growth after 20 hours of incubation time. […] MIC values are represented in Table 2.
(In general: Dilution methods test growth across graded concentrations, often in twofold steps.)

In data set [2] the test system is methicillin-resistant Staphylococcus schleiferi subspecies coagulans. Description: MIC broth microdilution, MRSS. Format: cell-based. Conditions: 20 hours of incubation. On the procedure:
as §1, §2, §3, §4

Data set [3] has as its system methicillin-resistant Staphylococcus pseudintermedius S-84. Put plainly: MIC broth microdilution, MRSP S-84. The conditions noted are these: 20 hours of incubation. Format: cell-based. The protocol:
as §1, §2, §3, §4

In data set [4] the test system is methicillin-resistant Staphylococcus pseudintermedius S-48. Put plainly: MIC broth microdilution, MRSP S-48. The conditions noted are these: 20 hours of incubation. Format: cell-based. The protocol:
as §1, §2, §3, §4

Data set [5] relates to methicillin-resistant Staphylococcus pseudintermedius S-35. Put plainly: MIC broth microdilution, MRSP S-35. The class given is cell-based. The conditions noted are these: 20 hours of incubation. On the procedure:
as §1, §2, §3, §4

The test system of data set [6] is methicillin-resistant Staphylococcus pseudintermedius S-52. Put plainly: MIC broth microdilution, MRSP S-52. Format: cell-based. Conditions: 20 hours of incubation. On the procedure: as §1, §2, §3, §4
Data set [7] deals with methicillin-resistant Staphylococcus pseudintermedius S-40. Put plainly: MIC broth microdilution, MRSP S-40. The class given is cell-based. Conditions: 20 hours of incubation. The protocol:
as §1, §2, §3, §4

Data set [8] relates to methicillin-resistant Staphylococcus pseudintermedius S-51. Description: MIC broth microdilution, MRSP S-51. The conditions noted are these: 20 hours of incubation. Format: cell-based. On the procedure: as §1, §2, §3, §4
The subject of data set [9] is E. faecalis DRK 057. Description: MIC broth microdilution, E. faecalis. The class given is cell-based. The conditions noted are these: Enterococcus faecalis, DRK057, 20 hours of incubation. On the procedure:
as §1, §2, §3, §4

Data set [10] concerns P. aeruginosa RDK 184. Put plainly: MIC broth microdilution, P. aeruginosa. The class given is cell-based. The conditions noted are these: Pseudomonas aeruginosa, RDK184, 20 hours of incubation. On the procedure:
as §1, §2, §3, §4

The test system of data set [11] is C. jejuni RDK-135. Put plainly: MIC broth microdilution, C. jejuni. Format: cell-based. The conditions noted are these: Campylobacter jejuni, RDK135, 20 hours of incubation. The protocol:
as §1, §4

Data set [12] has as its system HUVEC (ATCC) cell line. Description: Cytotoxicity, metabolic cell activity (CellTiter 96 AQueous One), HUVEC. The class given is cell-based. Conditions: two independent experiments; for mean percentage of metabolic activity of treated cells, HUVEC 1 μM: compound 1 μM; for mean percentage of metabolic activity of treated cells, HUVEC 50 μM: compound 50 μM. The protocol: (§5) Cytotoxicity was assessed in assay measuring metabolic cell activity performed on HepG2 (ATCC) and HUVEC (ATCC) cell lines according to the protocol of CellTiter 96® AQueous One Solution Cell Proliferation Assay 2018, Promega, USA, 2001. The method involved absorbance measurements after the treatment of cells with compounds at concentrations 1 μM and 50 μM.
(§6) The results are given as the mean percentage of metabolic activity of treated cells from two independent experiments and are represented in Table 3.

The subject of data set [13] is HepG2 (ATCC) cell line. Put plainly: Cytotoxicity, metabolic cell activity (CellTiter 96 AQueous One), HepG2. Format: cell-based. The conditions noted are these: two independent experiments; for mean percentage of metabolic activity of treated cells, HepG2 1 μM: HepG2, compound 1 μM; for mean percentage of metabolic activity of treated cells, HepG2 50 μM: HepG2, compound 50 μM. The protocol:
as §5, §6

Data set [14] deals with T1, Escherichia coli DNA gyrase (Escherichia coli, UniProt P0AES4+P0AES6).
T1 construct: purchased Inspiralis (Norwich, UK)
Description: Gyrase Supercoiling High Throughput Plate assay (E. coli). The conditions noted are these: mean of two to four independent measurements. Format: biochemical.

Data set [15] relates to methicillin-resistant Staphylococcus aureus (MRSA). Put plainly: MIC broth microdilution, MRSA. Format: cell-based. The conditions noted are these: 20 hours of incubation. On the procedure: as §1, §2, §3, §4
Data set [16] addresses Staphylococcus aureus DNA gyrase (Staphylococcus aureus, UniProt P0A0K8+P20831). Description: biochemical.

T1 sequence (P0AES4 whole entry, one chain of several): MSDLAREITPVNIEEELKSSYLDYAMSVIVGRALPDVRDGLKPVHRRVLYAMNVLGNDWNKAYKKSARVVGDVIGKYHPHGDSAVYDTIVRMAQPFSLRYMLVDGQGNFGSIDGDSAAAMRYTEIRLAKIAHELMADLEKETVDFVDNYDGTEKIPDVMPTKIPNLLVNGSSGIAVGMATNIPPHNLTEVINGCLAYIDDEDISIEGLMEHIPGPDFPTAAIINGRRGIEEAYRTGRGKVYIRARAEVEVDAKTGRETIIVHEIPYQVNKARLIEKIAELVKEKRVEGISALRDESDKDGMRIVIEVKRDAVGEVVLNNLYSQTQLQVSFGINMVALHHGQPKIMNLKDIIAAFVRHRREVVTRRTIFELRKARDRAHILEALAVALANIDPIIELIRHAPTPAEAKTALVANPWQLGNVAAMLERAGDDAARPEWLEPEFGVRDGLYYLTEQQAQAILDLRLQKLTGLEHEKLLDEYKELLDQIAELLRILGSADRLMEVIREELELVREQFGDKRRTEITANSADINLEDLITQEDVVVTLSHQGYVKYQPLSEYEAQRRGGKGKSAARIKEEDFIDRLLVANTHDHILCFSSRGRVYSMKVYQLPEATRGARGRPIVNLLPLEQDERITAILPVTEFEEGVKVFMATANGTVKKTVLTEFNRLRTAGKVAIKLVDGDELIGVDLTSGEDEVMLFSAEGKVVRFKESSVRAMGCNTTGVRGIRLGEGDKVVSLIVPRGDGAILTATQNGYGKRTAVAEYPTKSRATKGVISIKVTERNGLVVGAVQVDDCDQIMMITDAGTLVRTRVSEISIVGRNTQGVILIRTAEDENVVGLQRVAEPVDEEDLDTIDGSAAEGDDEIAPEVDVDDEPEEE
Chain of Staphylococcus aureus DNA gyrase (P20831 whole entry): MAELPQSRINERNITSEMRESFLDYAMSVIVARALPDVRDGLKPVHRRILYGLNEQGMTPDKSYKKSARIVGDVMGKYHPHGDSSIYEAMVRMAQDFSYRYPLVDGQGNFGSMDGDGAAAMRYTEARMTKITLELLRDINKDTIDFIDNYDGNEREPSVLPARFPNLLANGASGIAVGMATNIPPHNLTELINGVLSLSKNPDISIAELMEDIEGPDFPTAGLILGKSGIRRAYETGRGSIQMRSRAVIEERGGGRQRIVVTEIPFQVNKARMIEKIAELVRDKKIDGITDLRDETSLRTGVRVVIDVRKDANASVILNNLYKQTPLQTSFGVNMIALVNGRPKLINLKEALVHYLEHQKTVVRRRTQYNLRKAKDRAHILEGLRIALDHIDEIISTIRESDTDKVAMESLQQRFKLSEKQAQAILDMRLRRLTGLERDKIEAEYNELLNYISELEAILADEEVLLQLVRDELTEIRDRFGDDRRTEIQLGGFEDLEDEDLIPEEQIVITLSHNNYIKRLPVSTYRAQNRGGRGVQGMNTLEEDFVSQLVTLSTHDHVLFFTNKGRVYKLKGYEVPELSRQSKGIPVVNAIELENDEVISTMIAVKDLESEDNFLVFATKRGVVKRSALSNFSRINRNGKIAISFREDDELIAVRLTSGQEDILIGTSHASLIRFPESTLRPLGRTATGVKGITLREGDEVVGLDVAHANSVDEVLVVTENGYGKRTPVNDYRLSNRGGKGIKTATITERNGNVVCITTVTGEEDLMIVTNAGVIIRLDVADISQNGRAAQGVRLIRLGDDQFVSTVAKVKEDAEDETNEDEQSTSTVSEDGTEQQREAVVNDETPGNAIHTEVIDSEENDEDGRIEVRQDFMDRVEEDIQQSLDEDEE
Chain of Staphylococcus aureus DNA gyrase (P0A0K8 whole entry): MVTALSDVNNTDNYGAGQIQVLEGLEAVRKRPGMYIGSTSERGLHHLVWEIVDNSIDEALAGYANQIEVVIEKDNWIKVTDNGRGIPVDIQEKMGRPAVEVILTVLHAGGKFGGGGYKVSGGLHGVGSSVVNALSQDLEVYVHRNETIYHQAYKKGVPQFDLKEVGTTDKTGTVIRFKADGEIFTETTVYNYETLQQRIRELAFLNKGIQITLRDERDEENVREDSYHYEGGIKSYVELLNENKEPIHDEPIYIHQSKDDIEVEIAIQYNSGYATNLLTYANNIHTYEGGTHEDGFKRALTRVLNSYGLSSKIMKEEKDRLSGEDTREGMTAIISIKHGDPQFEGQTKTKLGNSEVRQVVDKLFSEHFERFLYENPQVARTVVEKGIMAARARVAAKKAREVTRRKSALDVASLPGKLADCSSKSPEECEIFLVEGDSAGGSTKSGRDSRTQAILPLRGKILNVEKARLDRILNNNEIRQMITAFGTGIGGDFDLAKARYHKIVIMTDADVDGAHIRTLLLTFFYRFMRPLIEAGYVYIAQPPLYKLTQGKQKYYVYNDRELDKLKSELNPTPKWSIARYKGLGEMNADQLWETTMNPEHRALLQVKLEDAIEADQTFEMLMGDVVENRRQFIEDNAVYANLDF

What is called MIC is the least concentration at which growth counts as inhibited. The low end stands for greater potency, the high end for weaker potency. Regarding `COc1ccc2nccc(CCN3CCC(NCc4ccc(Cl)cc4)CC3)c2n1` [Compound C6, N-(4-chlorobenzyl)-1-(2-(6-methoxy-1,5-naphthyridin-4-yl)ethyl)piperidin-4-amine], the minimal inhibitory concentration (MIC) in data set [1] was 0.125 µg/mL (≈ 0.304 µM); in data set [2] it was at most 0.0078 µg/mL; in data set [3], 0.25 µg/mL (≈ 0.608 µM); in data set [4], 0.25 µg/mL (≈ 0.608 µM); in [5], 0.25 µg/mL (≈ 0.608 µM); in data set [6], 0.5 µg/mL (≈ 1.22 µM). In addition, the MIC in [7] is 0.25 µg/mL (≈ 0.608 µM); in [8], 0.25 µg/mL (≈ 0.608 µM); in data set [9], 1 µg/mL (≈ 2.43 µM); in data set [10], over 128 µg/mL; in data set [11], 2 µg/mL (≈ 4.87 µM). In addition, the “mean percentage of metabolic activity of treated cells, HUVEC 1 μM” value (“mean percentage … HUVEC 1 μM” for short) in data set [12] came to 86.1 ± 17.1%. The “mean percentage of metabolic activity of treated cells, HUVEC 50 μM” value (“mean percentage … HUVEC 50 μM” for short) in data set [12] was −0.6 ± 0.4%. The “mean percentage of metabolic activity of treated cells, HepG2 1 μM” value (from here on “mean percentage … HepG2 1 μM”) in data set [13] is listed as 84.5 ± 11.1%. The “mean percentage of metabolic activity of treated cells, HepG2 50 μM” value (“mean percentage … HepG2 50 μM” for short) in data set [13] is recorded as 0.9 ± 0.1%.
As a reminder, the IC50 is the concentration that inhibits the measured activity by half. Low values mean greater potency in that assay, high ones weaker potency in that assay. As to `C=CCn1cc(CNC2CCN(CCc3ccnc4ccc(OC)nc34)CC2)cn1` [Compound C11, N-((1-allyl-^1H-pyrazol-4-yl)methyl)-1-(2-(6-methoxy-1,5-naphthyridin-4-yl)ethyl)piperidin-4-amine], the IC50 in data set [14] stood at 16.7 µM; in data set [16], 1.1 µM. The MIC in data set [15] is 2 µg/mL (≈ 4.92 µM); in data set [2] it was 0.125 µg/mL (≈ 0.307 µM); in [3] it was under 1 µg/mL; in [4], 2 µg/mL (≈ 4.92 µM); in data set [5] it was 2 µg/mL (≈ 4.92 µM); in data set [6] it was 4 µg/mL (≈ 9.84 µM). For the same compound, the MIC in [7] is 1 µg/mL (≈ 2.46 µM); in data set [8] it was 2 µg/mL (≈ 4.92 µM); in [9], 8 µg/mL (≈ 19.7 µM); in data set [10], over 128 µg/mL; in data set [11] it was 8 µg/mL (≈ 19.7 µM). Moreover, in data set [12], the “mean percentage … HUVEC 1 μM” value was 88.6 ± 21.2%. Also, the “mean percentage … HUVEC 50 μM” value in data set [12] was found to be 84.2 ± 19.5%. Further, in data set [13], the “mean percentage … HepG2 1 μM” value stood at 108.5 ± 6.3%. Moreover, in data set [13], the “mean percentage … HepG2 50 μM” value is listed as 77.0 ± 2.4%.
For `COc1ccc2nccc(CCN3CCC(NCc4ccc(N(C)C)cc4)CC3)c2n1` [Compound C4, N-(4-(dimethylamino)benzyl)-1-(2-(6-methoxy-1,5-naphthyridin-4-yl)ethyl)piperidin-4-amine], the figures for the concentration for half-maximal inhibition (IC50) in [14] and in data set [16] were 11.9 µM and 0.067 µM, respectively. Further, the MIC was 0.025 µg/mL (≈ 0.0596 µM) in [15]; 0.015 µg/mL (≈ 0.0358 µM) in [2]; 0.125 µg/mL (≈ 0.298 µM) in data set [3]; 0.25 µg/mL (≈ 0.596 µM) in [4]; 0.25 µg/mL (≈ 0.596 µM) in data set [5]; 0.5 µg/mL (≈ 1.19 µM) in data set [6]. Also, the MIC in data set [7] is 0.125 µg/mL (≈ 0.298 µM); in [8] it was 0.25 µg/mL (≈ 0.596 µM); in [9], 1 µg/mL (≈ 2.38 µM); in [10] it was over 128 µg/mL; in data set [11] it was 4 µg/mL (≈ 9.53 µM). Besides, in [12], the “mean percentage … HUVEC 1 μM” value was 105.9 ± 0.9%. Besides, in data set [12], the “mean percentage … HUVEC 50 μM” value was 0.1 ± 0.6%. In data set [13], the “mean percentage … HepG2 1 μM” value came out at 102.5 ± 2.3%. For the same compound, the “mean percentage … HepG2 50 μM” value in data set [13] was 0.8 ± 1.0%.
